Assay results published in patent US20110217300A1, “Quinazolinone Compounds and Methods of Use Thereof” (priority 2007, published 2011).
Read-outs that look alike come from different tables or passages of the source.

Columns and labels:
HsEg5 = molecular target: T1, HsEg5 (Homo sapiens, UniProt P52732); assay: Fluorescence detection of HsEg5 ATPase activity (ADP Quest, automated); assay type: biochemical
T1 sequence (P52732 18-359 limits assumed): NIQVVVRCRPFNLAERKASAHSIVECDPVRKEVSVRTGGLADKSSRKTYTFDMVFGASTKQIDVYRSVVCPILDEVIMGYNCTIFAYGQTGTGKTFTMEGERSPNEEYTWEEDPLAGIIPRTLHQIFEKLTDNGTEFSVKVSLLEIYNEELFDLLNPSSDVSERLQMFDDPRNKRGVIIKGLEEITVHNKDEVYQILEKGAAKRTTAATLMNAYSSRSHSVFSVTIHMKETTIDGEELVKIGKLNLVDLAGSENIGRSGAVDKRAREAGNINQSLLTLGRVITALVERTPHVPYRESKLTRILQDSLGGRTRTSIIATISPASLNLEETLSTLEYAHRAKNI
Outline: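 Microtubule-activated HsEg5 motor fragment (10 nM, 500 nM MTs) preincubated 10 min with compound, then 20 μM ATP for 10 min at room temperature in Pipes pH 7.0, MgCl2, paclitaxel, 0.3% DMSO. ADP detected via coupled-enzyme resorufin fluorescence; IC50 over 100 μM–5 nM.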

NCI-H460 = assay: MTS cell viability assay; assay type: cell-based, human; conditions: Homo sapiens, NCI-H460, 72 h
Outline: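 72 h compound treatment, 0.33% DMSO; […] PMS 7.67 mg/L, 4 h; 1.4% SDS; […]. Cells 100-5000/well, 37° C., 5% CO2. Output GI50, ≥2 replicates.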

A549 = assay: MTS cell viability assay; assay type: cell-based; conditions: Homo sapiens, A549 non small cell lung, 72 hours, read-out: MTS NCI A549 GI50
Outline: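 A549 and a second human cancer line seeded in DMEM/10% FBS, allowed 16–24 h to attach, then exposed 72 h at 37 °C, 5% CO2 to serially diluted compound (final DMSO 0.33%). Viability measured by MTS.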

[1] = read-out: MTS NCI H460 GI50, NCI-H460 non small cell lung, 72 hours

Compound | IC50 (HsEg5) [µM] | GI50 (NCI-H460; read-out: MTS NCI H460 GI50) [µM] | GI50 (A549) [µM] | GI50 (NCI-H460; [1]) [µM] | GI50 (A549; A549, 72 h) [µM]
CC[C@H](c1nc2cc(Cl)ccc2c(=O)n1Nc1ccccc1)N(CCCN)S(=O)(=O)c1ccsc1 [Compound 34, N-(3-Aminopropyl)-N-[(1R)-1-(3-anilino-7-chloro-4-oxo-3,4-dihydroquinazolin-2-yl)propyl]thiophene-3-sulfonamide] | 1.65 | 5.47 | 6.36 | – | –
CC(C)CC(c1nc2cc(Cl)ccc2c(=O)n1Nc1ccccc1)N(CCCN)C(=O)c1ccc(F)c(F)c1 (stereo not drawn) [Compound 35, N-(3-Aminopropyl)-N-[1-(3-anilino-7-chloro-4-oxo-3,4-dihydroquinazolin-2-yl)-3-methylbutyl]-3,4-difluorobenzamide] | 1.96 | 6.15 | 4.52 | – | –
CC(C)CC(c1nc2cc(Cl)ccc2c(=O)n1Nc1ccccc1)N(CCCN)C(=O)c1cc(Cl)cc(Cl)c1 (stereo not drawn) [Compound 36, N-(3-Aminopropyl)-N-[1-(3-anilino-7-chloro-4-oxo-3,4-dihydroquinazolin-2-yl)-3-methylbutyl]-3,5-dichlorobenzamide] | 1.86 | 3.77 | 4.37 | – | –
CC(C)CC(c1nc2cc(Cl)ccc2c(=O)n1Nc1ccccc1)N(CCCN)C(=O)c1ccc(F)c(Cl)c1 (stereo not drawn) [Compound 37, N-(3-Aminopropyl)-N-[1-(3-anilino-7-chloro-4-oxo-3,4-dihydroquinazolin-2-yl)-3-methylbutyl]-3-chloro-4-fluorobenzamide] | 1.66 | – | – | 4.49 | 5.02
CSCCC(c1nc2cc(Cl)ccc2c(=O)n1Nc1ccccc1)N(CCCN)C(=O)c1ccc(C)c(F)c1F (stereo not drawn) [Compound 39, N-(3-Aminopropyl)-N-[1-(3-anilino-7-chloro-4-oxo-3,4-dihydroquinazolin-2-yl)-3-(methylthio)propyl]-2,3-difluoro-4-methylbenzamide] | 3.01 | 4.49 | 6.09 | – | –
CSCCC(c1nc2cc(Cl)ccc2c(=O)n1Nc1ccccc1)N(CCCN)C(=O)c1ccc(-n2cccn2)cc1 (stereo not drawn) [Compound 40, N-(3-Aminopropyl)-N-[1-(3-anilino-7-chloro-4-oxo-3,4-dihydroquinazolin-2-yl)-3-(methylthio)propyl]-4-(1H-pyrazol-1-yl)benzamide] | 2.83 | 8.35 | 6.12 | – | –
CC(c1nc2cc(Cl)ccc2c(=O)n1Nc1ccccc1)N(CCCN)C(=O)c1ccc(Cl)c(Cl)c1 (stereo not drawn) [Compound 41, N-(3-Aminopropyl)-N-[1-(3-anilino-7-chloro-4-oxo-3,4-dihydroquinazolin-2-yl)ethyl]-3,4-dichlorobenzamide] | 3.37 | 6.28 | 5.67 | – | –
CC(C)C(c1nc2cc(Cl)ccc2c(=O)n1Nc1ccccc1)N(CCCN)C(=O)c1cccc(F)c1F (stereo not drawn) [Compound 42, N-(3-Aminopropyl)-N-[1-(3-anilino-7-chloro-4-oxo-3,4-dihydroquinazolin-2-yl)-2-methylpropyl]-2,3-difluorobenzamide] | 0.476 | 2.08 | 4.28 | – | –
CC(C)C(c1nc2cc(Cl)ccc2c(=O)n1Nc1ccccc1)N(CCCN)C(=O)c1ccc(F)cc1 (stereo not drawn) [Compound 43, N-(3-Aminopropyl)-N-[1-(3-anilino-7-chloro-4-oxo-3,4-dihydroquinazolin-2-yl)-2-methylpropyl]-4-fluorobenzamide] | 0.833 | 2.81 | 3.49 | – | –
CC(C)C(c1nc2cc(Cl)ccc2c(=O)n1Nc1ccccc1)N(CCCN)C(=O)c1cccc(Br)c1 (stereo not drawn) [Compound 44, N-(3-Aminopropyl)-N-[1-(3-anilino-7-chloro-4-oxo-3,4-dihydroquinazolin-2-yl)-2-methylpropyl]-3-bromobenzamide] | 1.85 | – | – | 13.4 | 13.8
CC(C)C(c1nc2cc(Cl)ccc2c(=O)n1Nc1ccccc1)N(CCCN)C(=O)c1cc(F)c(Cl)cc1F (stereo not drawn) [Compound 45, N-(3-Aminopropyl)-N-[1-(3-anilino-7-chloro-4-oxo-3,4-dihydroquinazolin-2-yl)-2-methylpropyl]-4-chloro-2,5-difluorobenzamide] | 0.743 | 3.17 | 3.24 | – | –
CC(C)C(c1nc2cc(Cl)ccc2c(=O)n1Nc1ccccc1)N(CCCN)C(=O)c1ccc2ccccc2n1 (stereo not drawn) [Compound 47, N-(3-Aminopropyl)-N-[1-(3-anilino-7-chloro-4-oxo-3,4-dihydroquinazolin-2-yl)-2-methylpropyl]quinoline-2-carboxamide] | 3.23 | 2.7 | 4.09 | – | –
NCCCN(C(=O)c1ccc(Br)cc1)C(Cc1cccs1)c1nc2cc(Cl)ccc2c(=O)n1Nc1ccccc1 (stereo not drawn) [Compound 48, N-(3-Aminopropyl)-N-[1-(3-anilino-7-chloro-4-oxo-3,4-dihydroquinazolin-2-yl)-2-(2-thienyl)ethyl]-4-bromobenzamide] | 2.57 | 4.36 | 4.93 | – | –
Cc1ccc(C(=O)N(CCCN)C(Cc2cccs2)c2nc3cc(Cl)ccc3c(=O)n2Nc2ccccc2)cc1 (stereo not drawn) [Compound 49, N-(3-Aminopropyl)-N-[1-(3-anilino-7-chloro-4-oxo-3,4-dihydroquinazolin-2-yl)-2-(2-thienyl)ethyl]-4-methylbenzamide] | 3.44 | – | – | 4.41 | 4.69
NCCCN(C(=O)c1cccc(F)c1F)C(Cc1cccs1)c1nc2cc(Cl)ccc2c(=O)n1Nc1ccccc1 (stereo not drawn) [Compound 50, N-(3-Aminopropyl)-N-[1-(3-anilino-7-chloro-4-oxo-3,4-dihydroquinazolin-2-yl)-2-(2-thienyl)ethyl]-2,3-difluorobenzamide] | 1.18 | – | – | 3.12 | 3.77
NCCCN(C(=O)c1ccc(F)cc1)C(Cc1cccs1)c1nc2cc(Cl)ccc2c(=O)n1Nc1ccccc1 (stereo not drawn) [Compound 51, N-(3-Aminopropyl)-N-[1-(3-anilino-7-chloro-4-oxo-3,4-dihydroquinazolin-2-yl)-2-(2-thienyl)ethyl]-4-fluorobenzamide] | 2.8 | 5.38 | 4.45 | – | –
NCCCN(C(=O)c1ccc(F)c(F)c1)C(Cc1cccs1)c1nc2cc(Cl)ccc2c(=O)n1Nc1ccccc1 (stereo not drawn) [Compound 52, N-(3-Aminopropyl)-N-[1-(3-anilino-7-chloro-4-oxo-3,4-dihydroquinazolin-2-yl)-2-(2-thienyl)ethyl]-3,4-difluorobenzamide] | 1.25 | – | – | 3.47 | 4.29
NCCCN(C(=O)c1ccc(F)c(Cl)c1)C(Cc1cccs1)c1nc2cc(Cl)ccc2c(=O)n1Nc1ccccc1 (stereo not drawn) [Compound 53, N-(3-Aminopropyl)-N-[1-(3-anilino-7-chloro-4-oxo-3,4-dihydroquinazolin-2-yl)-2-(2-thienyl)ethyl]-3-chloro-4-fluorobenzamide] | 2.62 | – | – | 4.44 | 5.26
NCCCN(C(=O)c1ccc(Cl)c(Cl)c1)C(Cc1ccc(O)cc1)c1nc2cc(Cl)ccc2c(=O)n1Nc1ccccc1 (stereo not drawn) [Compound 54, N-(3-Aminopropyl)-N-[1-(3-anilino-7-chloro-4-oxo-3,4-dihydroquinazolin-2-yl)-2-(4-hydroxyphenyl)ethyl]-3,4-dichlorobenzamide] | 2.41 | – | – | 11.9 | 12.2
